From ChEMBL document CHEMBL5096221, “Discovery of a Highly Potent and Orally Bioavailable STAT3 Dual Phosphorylation Inhibitor for Pancreatic Cancer Treatment” (J Med Chem, 2022)
Activity calls are given as the source filed them. The calls are words filed in the database; no cut-off is given here.

Key:
[1] = molecular target: Mitogen-activated protein kinase 3 (Homo sapiens, UniProt P27361); assay: Inhibition of ERK1 (unknown origin)
[2] = molecular target: T1, Signal transducer and activator of transcription 3 (Homo sapiens, UniProt P40763); assay: Inhibition of STAT3 in human Capan-2 cells assessed as reduction of Cyclin D1 expression at 1 to 30 nM incubated for 22 to 24 hrs by western blot analysis; assay type: cell-based; settings: dose 1-30 nM, time 22-24 hrs, DDE = dose-dependent effect
BXPC-3 [3] = assay: Inhibition of mitochondrial respiration in human BXPC-3 cells at 1 to 30 nM incubated for 1 hr by seahorse XF96 flux analyzer; assay type: functional, cell-based; settings: dose 1-30 nM, DDE = dose-dependent effect
[4] = molecular target: T1, Signal transducer and activator of transcription 3; assay: Inhibition of STAT3 in human Capan-2 cells assessed as reduction of Cyclin D1 expression at 30 nM incubated for 4 to 24 hrs by western blot analysis; assay type: cell-based; settings: time 4-24 hrs, TDE = time-dependent effect
[5] = molecular target: T1, Signal transducer and activator of transcription 3; assay: Inhibition of STAT3 in human Capan-2 cells assessed as inhibition of STAT3 phosphorylation at Tyr 705 at 30 nM incubated for 4 to 24 hrs by western blot analysis; assay type: cell-based; settings: time 4-24 hrs, TDE = time-dependent effect
[6] = Microsomal stability in rat liver microsomes assessed as intrinsic clearance incubated upto 40 mins in presence of NADPH by LC-MS/MS analysis; assay type: ADME, Microsome; settings: read-out: CLH
[7] = molecular target: T1, Signal transducer and activator of transcription 3; assay: Inhibition of STAT3 in human Capan-2 cells assessed as inhibition of STAT3 phosphorylation at Ser 727 at 10 nM incubated for 22 to 24 hrs by western blot analysis; assay type: cell-based; settings: time 22-24 hrs
BXPC-3 [8] = assay: Inhibition of mitochondrial respiration in human BXPC-3 cells assessed as reduction in oxygen consumption rate at 1 to 30 nM incubated for 1 hr by seahorse XF96 flux analyzer; assay type: functional, cell-based; settings: dose 1-30 nM, DDE = dose-dependent effect
[9] = molecular target: Epidermal growth factor receptor (Homo sapiens, UniProt P00533); assay: Inhibition of EGFR (unknown origin)
CFPAC-1 [10] = assay: Inhibition of mitochondrial respiration in human CFPAC-1 cells assessed as reduction in basal respiration rate at 1 to 30 nM incubated for 1 hr by seahorse XF96 flux analyzer; assay type: functional, cell-based; settings: dose 1-30 nM, DDE = dose-dependent effect
[11] = molecular target: T1, Signal transducer and activator of transcription 3; assay: Inhibition of STAT3 in human BXPC-3 cells assessed as inhibition of STAT3 phosphorylation at Ser 727 at 30 nM incubated for 4 to 24 hrs by western blot analysis; assay type: cell-based; settings: time 4-24 hrs, TDE = time-dependent effect
[12] = Toxicity in BALB/c mouse xenografted with human BXPC-3 cells assessed as effect on heart at 30 mg/kg,po administrated once daily for 8 weeks by H and E staining based microscopic analysis; assay type: organism-based; settings: in vivo, 1344 h
MIA PaCa-2 = assay: Anti-proliferative activity against human MIA PaCa-2 cells assessed as cell growth inhibition incubated for 72 hrs by MTS assay; assay type: functional, cell-based; settings: MIA PaCa-2, 72 h
[13] = molecular target: Proto-oncogene tyrosine-protein kinase Src (Homo sapiens, UniProt P12931); assay: Inhibition of SRC (unknown origin)
[14] = Toxicity in BALB/c mouse xenografted with human BXPC-3 cells assessed as effect on lung at 30 mg/kg,po administrated once daily for 8 weeks by H and E staining based microscopic analysis; assay type: organism-based; settings: in vivo, 1344 h
[15] = molecular target: T1, Signal transducer and activator of transcription 3; assay: Inhibition of STAT3 in human BXPC-3 cells assessed as inhibition of IL-6 stimulated cytoplasmic STAT3 phosphorylation at Tyr 705 at 1 to 30 nM by western blot assay; assay type: cell-based; settings: dose 1-30 nM
Cytochrome P450 3A4 = Cytochrome P450 3A4 (Homo sapiens, UniProt P08684); assay: Inhibition of CYP3A4 in human liver microsomes using testosterone as substrate in presence of NADPH by HPLC analysis; assay type: ADME, Microsome
[16] = molecular target: T1, Signal transducer and activator of transcription 3; assay: Inhibition of STAT3 in human BXPC-3 cells assessed as reduction of c-Myc expression at 1 to 30 nM incubated for 22 to 24 hrs by western blot analysis; assay type: cell-based; settings: dose 1-30 nM, time 22-24 hrs, DDE = dose-dependent effect
[17] = molecular target: T1, Signal transducer and activator of transcription 3; assay: Inhibition of STAT3 in human BXPC-3 cells assessed as inhibition of IL-6 stimulated STAT3 nuclear translocation by immunofluorescent assay; assay type: cell-based
[18] = Oral bioavailability in BALB/c mouse at 10 mg/kg,po measured upto 24 hrs by LC-MS/MS analysis; assay type: ADME, organism-based; settings: in vivo
[19] = Microsomal stability in rat liver microsomes assessed as compound remaining incubated for 60 mins in presence of NADPH by LC-MS/MS analysis; assay type: ADME, Microsome; settings: read-out: Stability
[20] = AUC (0-infinity) in BALB/c mouse at 1 mg/kg,iv measured upto 24 hrs by LC-MS/MS analysis; assay type: ADME, organism-based; parameters: dose 1 mg/kg, time < 24 hrs, route iv; settings: in vivo
CFPAC-1 [21] = assay: Inhibition of mitochondrial respiration in human CFPAC-1 cells assessed as reduction in oxygen consumption rate at 1 to 30 nM incubated for 1 hr by seahorse XF96 flux analyzer; assay type: functional, cell-based; settings: dose 1-30 nM, DDE = dose-dependent effect
[22] = molecular target: Tyrosine-protein kinase JAK2 (Homo sapiens, UniProt O60674); assay: Inhibition of JAK2 (unknown origin)
[23] = molecular target: T1, Signal transducer and activator of transcription 3; assay: Inhibition of STAT3 in human Capan-2 cells assessed as inhibition of IL-6 stimulated STAT3 phosphorylation at Tyr 705 at 1 to 30 nM by western blot assay; assay type: cell-based; settings: dose 1-30 nM, DDE = dose-dependent effect
[24] = MRT (0 to last) in BALB/c mouse at 1 mg/kg,iv measured upto 24 hrs by LC-MS/MS analysis; assay type: ADME, organism-based; settings: BALB/c, in vivo
Mus musculus = assay: In vivo inhibition of STAT3 in BALB/c mouse xenografted with human BXPC-3 cells assessed as inhibition of STAT3 phosphorylation at Ser 727 at 30 mg/kg,po administrated once daily for 8 weeks by immunohistochemical analysis; assay type: functional, organism-based
[25] = molecular target: T2, Mitogen-activated protein kinase 13 (Homo sapiens, UniProt O15264); assay: Inhibition of p38delta (unknown origin)
T2 sequence (O15264 whole entry): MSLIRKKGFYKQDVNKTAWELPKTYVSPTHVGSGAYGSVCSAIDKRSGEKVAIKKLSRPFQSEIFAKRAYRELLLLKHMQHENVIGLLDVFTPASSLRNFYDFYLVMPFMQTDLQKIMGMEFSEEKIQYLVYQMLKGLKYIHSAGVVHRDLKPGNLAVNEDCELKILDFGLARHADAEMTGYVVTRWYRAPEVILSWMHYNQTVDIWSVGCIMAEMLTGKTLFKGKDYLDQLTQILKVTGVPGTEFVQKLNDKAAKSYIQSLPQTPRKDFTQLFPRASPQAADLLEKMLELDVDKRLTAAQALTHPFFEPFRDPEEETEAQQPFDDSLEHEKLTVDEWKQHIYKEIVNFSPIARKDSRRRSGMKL

[26] = Toxicity in BALB/c mouse xenografted with human BXPC-3 cells assessed as body weight change at 30 mg/kg,po administrated once daily for 8 weeks; assay type: organism-based; settings: in vivo, 1344 h
BXPC-3 [27] = assay: Antitumor activity against human BXPC-3 cells xenografted BALB/c mouse model assessed as reduction in Ki67 expression at 10 mg/kg,po administrated once daily for 8 weeks by immunohistochemical analysis; assay type: functional, organism-based
[28] = molecular target: T1, Signal transducer and activator of transcription 3; assay: Inhibition of STAT3 in human BXPC-3 cells assessed as inhibition of STAT3 phosphorylation at Tyr 705 at 10 nM incubated for 22 to 24 hrs by western blot analysis; assay type: cell-based; settings: time 22-24 hrs
[29] = Inhibition of ATP production in human BXPC-3 cells incubated for 20 to 24 hrs by ATP assay kit method; assay type: functional, cell-based

T1 sequence (P40763 whole entry): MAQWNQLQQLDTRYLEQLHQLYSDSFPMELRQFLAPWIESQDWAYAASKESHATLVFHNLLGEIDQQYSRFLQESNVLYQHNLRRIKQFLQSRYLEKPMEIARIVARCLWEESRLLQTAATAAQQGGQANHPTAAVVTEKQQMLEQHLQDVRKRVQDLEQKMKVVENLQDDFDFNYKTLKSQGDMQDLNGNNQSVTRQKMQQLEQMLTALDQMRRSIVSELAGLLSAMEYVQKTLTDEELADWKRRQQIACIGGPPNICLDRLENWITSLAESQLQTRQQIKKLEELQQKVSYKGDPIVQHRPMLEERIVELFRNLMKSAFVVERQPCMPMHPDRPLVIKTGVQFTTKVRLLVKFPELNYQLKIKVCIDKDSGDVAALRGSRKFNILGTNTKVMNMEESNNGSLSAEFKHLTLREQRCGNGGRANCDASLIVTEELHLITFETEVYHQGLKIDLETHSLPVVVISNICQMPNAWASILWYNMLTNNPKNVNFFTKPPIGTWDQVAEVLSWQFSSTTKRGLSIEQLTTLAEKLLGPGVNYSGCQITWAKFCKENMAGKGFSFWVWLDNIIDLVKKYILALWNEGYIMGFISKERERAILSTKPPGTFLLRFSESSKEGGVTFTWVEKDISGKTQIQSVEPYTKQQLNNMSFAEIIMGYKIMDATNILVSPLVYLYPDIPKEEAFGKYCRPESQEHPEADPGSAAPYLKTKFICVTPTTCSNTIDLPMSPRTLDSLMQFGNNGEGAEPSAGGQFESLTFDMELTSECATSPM
Epidermal growth factor receptor, sequence (P00533 whole entry): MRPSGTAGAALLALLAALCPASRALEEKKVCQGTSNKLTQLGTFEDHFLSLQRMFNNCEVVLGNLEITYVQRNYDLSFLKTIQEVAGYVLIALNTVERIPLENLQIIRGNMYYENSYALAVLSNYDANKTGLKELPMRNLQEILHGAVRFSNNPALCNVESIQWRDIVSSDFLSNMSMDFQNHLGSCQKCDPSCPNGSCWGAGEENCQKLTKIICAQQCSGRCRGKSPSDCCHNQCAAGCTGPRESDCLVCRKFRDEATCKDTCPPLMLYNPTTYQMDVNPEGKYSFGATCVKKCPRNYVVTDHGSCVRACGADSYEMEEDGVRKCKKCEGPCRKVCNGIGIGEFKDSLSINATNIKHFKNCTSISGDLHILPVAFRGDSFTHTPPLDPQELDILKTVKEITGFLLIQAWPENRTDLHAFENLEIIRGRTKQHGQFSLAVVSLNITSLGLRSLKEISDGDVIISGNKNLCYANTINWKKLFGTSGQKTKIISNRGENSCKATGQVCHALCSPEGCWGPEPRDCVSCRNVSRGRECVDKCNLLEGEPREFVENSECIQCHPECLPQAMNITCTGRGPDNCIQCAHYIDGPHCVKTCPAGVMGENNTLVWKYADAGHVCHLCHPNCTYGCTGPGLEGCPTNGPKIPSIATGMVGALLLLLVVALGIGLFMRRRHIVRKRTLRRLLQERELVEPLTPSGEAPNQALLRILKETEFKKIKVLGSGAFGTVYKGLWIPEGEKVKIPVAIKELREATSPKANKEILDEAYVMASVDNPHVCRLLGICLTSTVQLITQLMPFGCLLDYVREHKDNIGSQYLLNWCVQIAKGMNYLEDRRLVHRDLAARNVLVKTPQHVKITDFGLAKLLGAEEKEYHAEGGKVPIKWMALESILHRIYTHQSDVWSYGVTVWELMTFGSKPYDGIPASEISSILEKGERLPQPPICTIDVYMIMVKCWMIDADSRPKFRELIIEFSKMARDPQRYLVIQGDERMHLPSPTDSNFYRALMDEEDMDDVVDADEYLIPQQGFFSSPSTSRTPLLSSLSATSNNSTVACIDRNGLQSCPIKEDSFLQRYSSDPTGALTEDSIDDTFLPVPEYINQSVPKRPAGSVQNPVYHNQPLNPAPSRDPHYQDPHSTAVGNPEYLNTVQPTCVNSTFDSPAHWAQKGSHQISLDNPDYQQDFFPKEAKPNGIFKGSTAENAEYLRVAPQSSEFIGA
Tyrosine-protein kinase JAK2, sequence (O60674 whole entry): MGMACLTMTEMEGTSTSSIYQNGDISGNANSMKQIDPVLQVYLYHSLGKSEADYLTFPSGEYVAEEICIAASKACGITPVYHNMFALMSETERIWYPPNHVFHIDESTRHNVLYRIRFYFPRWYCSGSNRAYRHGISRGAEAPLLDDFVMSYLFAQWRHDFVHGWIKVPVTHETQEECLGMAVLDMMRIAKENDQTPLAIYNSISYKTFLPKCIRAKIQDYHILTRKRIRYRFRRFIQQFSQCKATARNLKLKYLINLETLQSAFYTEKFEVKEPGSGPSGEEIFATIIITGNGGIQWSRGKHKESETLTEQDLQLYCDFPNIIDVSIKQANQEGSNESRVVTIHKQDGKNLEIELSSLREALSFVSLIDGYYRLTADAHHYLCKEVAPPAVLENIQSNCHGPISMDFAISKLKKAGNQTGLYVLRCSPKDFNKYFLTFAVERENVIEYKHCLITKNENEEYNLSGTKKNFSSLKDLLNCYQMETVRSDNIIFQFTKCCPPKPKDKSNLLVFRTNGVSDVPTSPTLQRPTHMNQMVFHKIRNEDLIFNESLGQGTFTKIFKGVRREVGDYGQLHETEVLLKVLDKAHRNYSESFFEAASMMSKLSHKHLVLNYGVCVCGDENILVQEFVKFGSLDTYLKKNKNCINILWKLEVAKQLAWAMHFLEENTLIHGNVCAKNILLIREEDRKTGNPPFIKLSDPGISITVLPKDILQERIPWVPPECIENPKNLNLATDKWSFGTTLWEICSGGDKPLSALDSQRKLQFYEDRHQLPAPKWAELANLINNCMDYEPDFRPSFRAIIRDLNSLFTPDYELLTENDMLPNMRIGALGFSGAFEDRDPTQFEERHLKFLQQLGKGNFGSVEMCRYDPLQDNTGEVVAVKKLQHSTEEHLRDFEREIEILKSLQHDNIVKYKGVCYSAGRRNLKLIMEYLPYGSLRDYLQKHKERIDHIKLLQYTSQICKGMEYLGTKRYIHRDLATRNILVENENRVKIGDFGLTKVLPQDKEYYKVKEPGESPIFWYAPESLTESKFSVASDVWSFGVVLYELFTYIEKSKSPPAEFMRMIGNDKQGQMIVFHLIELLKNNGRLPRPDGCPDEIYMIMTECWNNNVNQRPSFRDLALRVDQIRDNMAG
Mitogen-activated protein kinase 3, sequence (P27361 whole entry): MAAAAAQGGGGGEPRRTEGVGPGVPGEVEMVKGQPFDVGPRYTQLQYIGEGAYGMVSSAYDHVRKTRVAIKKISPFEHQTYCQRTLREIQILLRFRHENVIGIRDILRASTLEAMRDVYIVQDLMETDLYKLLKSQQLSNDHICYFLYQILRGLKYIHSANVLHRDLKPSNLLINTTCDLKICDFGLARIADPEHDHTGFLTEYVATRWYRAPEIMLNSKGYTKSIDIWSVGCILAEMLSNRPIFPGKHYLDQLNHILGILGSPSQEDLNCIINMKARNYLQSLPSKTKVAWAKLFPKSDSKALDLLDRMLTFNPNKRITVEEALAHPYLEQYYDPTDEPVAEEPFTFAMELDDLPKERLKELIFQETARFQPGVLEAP
Cytochrome P450 3A4, sequence (P08684 whole entry): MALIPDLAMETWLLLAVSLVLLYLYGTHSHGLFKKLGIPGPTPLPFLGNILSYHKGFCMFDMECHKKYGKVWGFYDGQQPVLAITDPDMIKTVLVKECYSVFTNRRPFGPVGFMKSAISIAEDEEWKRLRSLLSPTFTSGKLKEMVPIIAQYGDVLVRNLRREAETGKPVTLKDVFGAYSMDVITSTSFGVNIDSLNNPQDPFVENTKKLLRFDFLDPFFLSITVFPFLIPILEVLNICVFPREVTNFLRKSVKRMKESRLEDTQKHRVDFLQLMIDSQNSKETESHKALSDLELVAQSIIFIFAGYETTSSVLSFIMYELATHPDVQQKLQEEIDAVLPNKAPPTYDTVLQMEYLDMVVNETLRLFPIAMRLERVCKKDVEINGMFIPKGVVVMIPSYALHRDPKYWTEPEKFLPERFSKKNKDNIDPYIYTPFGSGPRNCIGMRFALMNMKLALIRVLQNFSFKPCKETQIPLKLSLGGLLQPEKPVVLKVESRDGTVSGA
Proto-oncogene tyrosine-protein kinase Src, sequence (P12931 2-536 limits assumed): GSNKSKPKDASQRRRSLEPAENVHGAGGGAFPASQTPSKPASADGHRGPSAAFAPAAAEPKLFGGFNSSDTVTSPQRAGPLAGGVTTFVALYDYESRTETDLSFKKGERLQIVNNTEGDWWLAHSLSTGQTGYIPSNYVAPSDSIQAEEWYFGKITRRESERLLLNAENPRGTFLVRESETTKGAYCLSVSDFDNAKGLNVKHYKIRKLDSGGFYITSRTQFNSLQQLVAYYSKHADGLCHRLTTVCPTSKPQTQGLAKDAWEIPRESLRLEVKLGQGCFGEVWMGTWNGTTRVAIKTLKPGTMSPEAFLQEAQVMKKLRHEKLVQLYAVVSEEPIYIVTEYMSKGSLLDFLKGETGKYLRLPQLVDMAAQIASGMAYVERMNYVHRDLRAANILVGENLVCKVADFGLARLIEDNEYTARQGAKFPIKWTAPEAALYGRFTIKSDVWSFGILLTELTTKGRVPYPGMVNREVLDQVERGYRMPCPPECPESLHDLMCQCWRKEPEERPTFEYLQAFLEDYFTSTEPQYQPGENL

- IC50 [1]: > 10 µM
- inhibition [2]: Dde
- inhibition [4]: Tde
- inhibition [5]: Tde
- microsomal CLint [6]: 16.9 µL/min/mg
- inhibition [7]: Active
- IC50 [9]: > 10 µM
- inhibition [11]: Tde
- IC50 (MIA PaCa-2): 0.0021 µM
- IC50 [13]: > 10 µM
- inhibition [15]: Active
- IC50 (Cytochrome P450 3A4): > 50 µM
- inhibition [16]: Dde
- inhibition [17]: Active
- bioavailability [18]: 29.1%
- remaining at 1 h [19]: 60.5%
- AUC(0-inf) [20]: 11600 ng·h/mL
- IC50 [22]: > 10 µM
- inhibition [23]: Dde
- MRT last at 24 h [24]: 8.1 h
- IC50 [25]: > 10 µM
- inhibition [28]: Active
- IC50 [29]: 0.0042 µM
Compound: COc1ccc(-c2noc(-c3cnc(Oc4ccc5cc(C(=O)N6CCN(Cc7ccc(OCC(F)(F)F)cc7)CC6)n(C)c5c4)cn3)n2)cc1
- inhibition (BXPC-3 [3]): Dde
- inhibition (BXPC-3 [8]): Dde
- inhibition (CFPAC-1 [10]): Dde
- Activity [12]: Non-Toxic
- Activity [14]: Non-Toxic
- inhibition (CFPAC-1 [21]): Dde
- inhibition (Mus musculus): Active
- Activity [26]: Non-Toxic
- Activity (BXPC-3 [27]): Active
